Data as given in publication PMC10152543 (Journal of medicinal chemistry, 2022).

Experiment: Parallel artificial membrane permeability assay
Format: in vitro ADME
Details: result in words

Question: With O=C(NC1CCCC1)[C@@H]1CCCCOc2cccc(c2)C[C@H](N2CCCC2=O)C(=O)N[C@@H](CCN2CCOCC2)C(=O)N1 [TDI8304] as the molecule, how does the “permeability by PAMPA” value read?
Answer: modest

Question: With Cc1ccc(CNC(=O)[C@@H]2Cc3cccc(c3)Oc3cccc(c3)C[C@H](N)C(=O)N[C@@H](CCc3ccccc3)C(=O)N2)cc1 [CP1, (5S,8S,11S)-11-amino-N-(4-methylbenzyl)-7,10-dioxo-8-phenethyl-2-oxa-6,9-diaza-1,3(1,3)-dibenzenacyclododecaphane-5-carboxamide] as the molecule, how does the “permeability by PAMPA” value read?
Answer: undetectable
